Results from US5767113A, “Compounds useful for concurrently activating glucocorticoid-induced response and reducing multidrug resistance” (The Salk Institute For Biological Studies, priority 1995, dated 1998).
Like-named read-outs stand apart in the source and are kept apart here.

Columns and labels:
S7dexΓ -1 cells = assay: Reversal of puromycin resistance in the S7dex-1 cell line (turbidity at 660 nm); assay type: cell-based, murine
Text: I. Reversal of Puromycin Resistance in the S7dexΓ -1 Cell Line
The S7dexΓ- 1 cell line is a glucocorticoid resistant derivative of the S7CD-5 cell line. It was selected on the basis of its resistance to the glucocorticoid agonist triamcinolone acetonide (5×10^-7 M) from S7CD-5 cells that had been mutagenized with N-methyl-N'-nitro-N-nitrosoguanidine. The apoptic response to glucocorticoid agonists is not elicited in the S7dexΓ -1 cells. Thus, murine S7dexΓ -1 cells were distributed (5×10^4cells/ml, 1 ml/well) into multiwell dishes and incubated for 5 days with 20 μM puromycin and increasing concentrations of test compound. At the end of the incubation period, the turbidity values (at 660 nm) for each set of cultures were measured and expressed relative to cells that were incubated without test compound. These values represent the ability of test compound to reverse S7dexΓ -1 resistance to 20 μM puromycin, as reflected by the relative amount of cell proliferation under a given set of growth conditions. The number of repetitions of each value presented in the first data column of Table 1 are indicated in parenthesis after each entry. In the Table, the ED50 values reflect the concentration of chemosensitizer that causes the Relative Turbidity value to be reduced by 50%.

CEM/VLB100 cells = assay: Reversal of vinblastine resistance in the CEM/VLB100 cell line (turbidity at 660 nm); assay type: cell-based, human
Protocol: (§1) Human CEM/VLB100 cells were distributed (5×10^4 cells/ml, 1 ml/well) into multiwell dishes and incubated for 5 days with 30 nM vinblastine and increasing concentrations of test compound, as indicated in the Figure. At the end of the incubation period, the turbidity values (at 660 nm) for each set of cultures were measured and expressed relative to cells that were incubated without test compound. These values represent the ability of test compound, relative to control (i.e., verapamil) to reverse CEM/VLB100 resistance to 30 nM vinblastine, as reflected by the relative amount of cell proliferation under a given set of growth conditions. Each value shown in the Figures is the average of 2 separate determinations.
II. Reversal of Vinblastine Resistance in the CEM/VLB100 Cell Line
as §1, with “The CEM/VLB100 cell line is a derivative of human CEM cells, selected for resistance to vinblastine. This cell line expresses the human MDR1 gene.” for “Human”, “FIG. 2.” for “the Figure.”, “compound” for “compound, relative to control (i.e., verapamil)”, “FIG. 2” for “the Figures”, “determinations. Results are also presented in the second data column of Table 1, wherein the ED50 values reflect the concentration of chemosensitizer that causes the Relative Turbidity value to be reduced by 50%.” for “determinations.”

[1] = test system: murine thymoma W7TB cells; assay: Glucocorticoid agonist activity: glucocorticoid-induced apoptosis of murine thymoma W7TB cells (turbidity at 660 nm); assay type: cell-based; conditions: Mus musculus, 120 h, 5 days, agonist concentration that reduces Relative Turbidity to 50%, read-out: LD50 ^3
Protocol: FIG. 1 presents the results of an evaluation of the glucocorticoid agonist activity of several steroid analogs. The glucocorticoid-induced apoptosis of murine thymoma W7TB cells was taken as a measure of the agonist activity of steroid analogs. Murine W7TB cells were distributed (5×10^4 cells/ml/well) into multiwell dishes and incubated for 5 days with increasing concentrations of test compound, as indicated in the Figure. At the end of the incubation period, the turbidity values (at 660 nm) for each set of cultures were measured and expressed relative to cells that were incubated without test compound. These values represent the effect of test compound on the relative amount of cell proliferation under a given set of growth conditions. Each value shown in the Figures is the average of 2 separate determinations.
The glucocorticoid agonist activity of several steroid analogs was evaluated by determining the glucocorticoid-induced apoptosis of murine thymoma W7TB cells. Thus, murine W7TB cells were distributed (5×10^4 cells/ml/well) into multiwell dishes and incubated for 5 days with increasing concentrations of test compound, as indicated in FIG. 1. Dichlorisone is 1,4-pregnadiene-9α, 11β-dichloro-17α-21-diol-3,20-dione; "SA 44" is the 3,4-dimethoxy benzoic acid ester of dichlorisone; and "SA 47" is the 4-dimethylamino benzoic acid ester of dichlorisone. "17-DOD" is 17-deoxydexamethasone (i.e., 1,4-pregnadien-9α-fluoro-16αmethyl-11β,21-diol-3,20-dione); "SA 45" is the 4-dimethylamino benzoic acid ester of 17-DOD; and "SA 54" is the N-benzylcarbamate of 17-DOD.
At the end of the incubation period, the turbidity values (at 660 nm) for each set of cultures were measured and expressed relative to cells that were incubated without test compound. These values represent the effect of test compound on the relative amount of cell proliferation under a given set of growth conditions. Each value shown in FIGS. 1A and 1B is the average of 2 separate determinations. Results are also presented in the third data column of Table 1, wherein LD50 values reflect the agonist concentration that causes the Relative Turbidity value to be reduced to 50%.

[2] = S7dex1 cells, 5 days with 20 μM puromycin; chemosensitizer concentration that reduces Relative Turbidity by 50%; read-out: ED50 ^1
[3] = 5 days with 30 nM vinblastine, chemosensitizer concentration that reduces Relative Turbidity by 50%, read-out: ED50 ^2
[4] = read-out: ED50 ^1; S7dex1 cells, 5 days with 20 μM puromycin; chemosensitizer concentration that reduces Relative Turbidity by 50%
[5] = read-out: ED50 ^2, 5 days with 30 nM vinblastine, chemosensitizer concentration that reduces Relative Turbidity by 50%

| SMILES | IC50 (S7dexΓ -1 cells; [2]) [nM] | IC50 (CEM/VLB100 cells; [3]) [nM] | IC50 [1] [nM] | IC50 (S7dexΓ -1 cells; [4]) [nM] | IC50 (CEM/VLB100 cells; [5]) [nM] |
| --- | --- | --- | --- | --- | --- |
| C[C@@H]1C[C@H]2[C@@H]3CCC4=CC(=O)C=C[C@]4(C)[C@@]3(F)[C@@H](O)C[C@]2(C)[C@H]1C(=O)CO [17-DOD, 1,4-Pregnadien-9α-fluoro-16α-methyl-11β,21-diol-3, 20-dione, reference compound] | 2700 | > 8000 | 5.3 |  |  |
| CN(C)c1ccc(C(=O)OCC(=O)[C@@]2(O)CC[C@H]3[C@@H]4CCC5=CC(=O)C=C[C@]5(C)[C@@]4(Cl)[C@@H](Cl)C[C@@]32C)cc1 [SA 47, 1,4-Pregnadien-9α,11β-dichloro-17α,21-diol-3,20-dione, 21-(4-dimethylaminogenzoate)] | 450 | 1100 | 13 |  |  |
| C[C@]12C=CC(=O)C=C1CC[C@H]1[C@@H]3CC[C@](O)(C(=O)CO)[C@@]3(C)C[C@H](Cl)[C@@]12Cl [Dichlorisone, 1,4-pregnadiene-9α,11β-dichloro-17α-21-diol-3,20-dione, reference compound] |  |  | 7.5 | > 8000 | > 8000 |
| C[C@@H]1C[C@H]2[C@@H]3CCC4=CC(=O)C=C[C@]4(C)[C@@]3(F)[C@@H](O)C[C@]2(C)[C@H]1C(=O)COC(=O)NCc1ccccc1 [SA 54, 1,4-Preqnadien-9αfluoro-16αmethyl-11β,21-diol-3 20-dione, 21-(N-benzylcarbamate)] | 420 | 1800 | 250 |  |  |
| COc1ccc(C(=O)OCC(=O)[C@@]2(O)CC[C@H]3[C@@H]4CCC5=CC(=O)C=C[C@]5(C)[C@@]4(Cl)[C@@H](Cl)C[C@@]32C)cc1OC [SA 44, 1,4-Pregnadien-9α11β-dichloro-17α,21-diol-3,20-dione, 21-(3,4-dimethoxybenzoate)] | 440 | 2500 | 14 |  |  |
| C[C@@H]1C[C@H]2[C@@H]3CCC4=CC(=O)C=C[C@]4(C)[C@@]3(F)[C@@H](O)C[C@]2(C)[C@H]1C(=O)COC(=O)c1ccc(N(C)C)cc1 [SA 45, 1,4-Pregnadien-9α-fluoro-16αmethyl-11β,21-diol-3 20-dione, 21-(4-dimethylaminobenzoate)] | 360 | 2700 | 34 |  |  |
| COc1ccc(CCN(C)CCCC(C#N)(c2ccc(OC)c(OC)c2)C(C)C)cc1OC (stereo not shown) [Verapainil, verapamil, reference compound] |  |  |  | 760 | 1300 |
| CC(=O)[C@H]1[C@H](C)C[C@H]2[C@@H]3CCC4=CC(=O)C=C[C@]4(C)[C@@]3(F)[C@@H](O)C[C@@]21C [SA 50, 1,4-Pregnadien-9αfluoro-16αmethyl-11β-ol-3 20-dione] | 530 | > 8000 | 9 |  |  |
| CC(=O)[C@H]1CC[C@H]2[C@@H]3CCC4=CC(=O)CC[C@]4(C)[C@H]3CC[C@]12C [Progesterone, reference compound] | 1600 | > 8000 | 2400 |  |  |
| COc1ccc(C(=O)OCC(=O)[C@H]2[C@H](C)C[C@H]3[C@@H]4CCC5=CC(=O)C=C[C@]5(C)[C@@]4(F)[C@@H](O)C[C@@]32C)cc1OC [SA 43, 1,4-Pregnadien-9α-fluoro-16α-methyl-11β,21-diol-3,20-dione,21-(3 ,4-dimethoxybenzoate)] |  | 1200 | 18 |  |  |
